Data set [1] relates to MAO-B vs MAO-A. Kind of data set: Selectivity index of ChEMBl reference structures (MAO-A and MAO-B IC50). Type of data set: biochemical, human. Particulars: selectivity index calculated from ChEMBl IC50 values of MAO-A and MAO-B.
Data set [2] concerns the target T1, Monoamine oxidase B (Homo sapiens, UniProt P27338).
T1 sequence (P27338 2-520): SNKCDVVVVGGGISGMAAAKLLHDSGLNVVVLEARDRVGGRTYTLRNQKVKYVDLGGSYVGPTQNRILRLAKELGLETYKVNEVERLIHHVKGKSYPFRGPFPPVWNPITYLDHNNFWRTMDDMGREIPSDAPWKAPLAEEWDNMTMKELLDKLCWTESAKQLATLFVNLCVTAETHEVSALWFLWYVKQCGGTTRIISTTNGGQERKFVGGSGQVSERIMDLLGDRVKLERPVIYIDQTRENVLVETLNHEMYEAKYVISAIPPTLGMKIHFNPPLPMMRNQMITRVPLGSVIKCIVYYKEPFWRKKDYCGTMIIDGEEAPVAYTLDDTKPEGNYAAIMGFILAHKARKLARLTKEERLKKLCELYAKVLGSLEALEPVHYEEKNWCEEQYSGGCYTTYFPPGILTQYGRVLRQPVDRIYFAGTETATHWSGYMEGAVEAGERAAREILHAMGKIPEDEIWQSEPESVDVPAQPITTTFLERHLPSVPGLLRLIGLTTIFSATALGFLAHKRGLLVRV
The settings on record: human enzyme, closest reference structures; ref ChEMBl database; read-out: IC50 values (MAO-B); cited from earlier work.

Details of data set [3]: method as in literature (reference not given). Particulars: ref literature (reference not given); cited from earlier work.
Data set [4] in a line: PAMPA-BBB parallel artificial membrane permeability assay. The settings on record: for Papp at 4 h, 100 µM: PAMPA; for Experimental log Pe value / Membrane retention: PAMPA-BBB, pH 7.4, 37°C, 4 hours, n=9, ± SD; for Experimental log Pe value: Pe in cm/s.
Data set [5] is described as follows: Octanol/water partitioning, shake-flask method (log P, log D^pH). The settings on record: n-octanol/Britton-Robinson buffer.
The test system of data set [6] is MAO-B. The settings on record: cited from earlier work; for MAO-B selectivity index: MAO-B over MAO-A; for IC50: in vitro.
The conditions of data set [7]: PAMPA, pH 7.4. For orientation: PAMPA measures passive passage across an artificial lipid membrane.

“And” between values parts separate entries of the source, which are not always exact repeats. Equal values may be shown once. Read-outs that look alike come from different tables or passages of the source.

Turning to `COc1ccc(C2CC(c3ccc(O)cc3)=NN2C(C)=O)cc1` (centres unmarked) [CHEMBL65761], in data set [1], the Selectivity is reported as 0.00125.

With `O=C1/C(=C/c2ccc(O)cc2)COc2cc(O)cc(O)c21` [CHEMBL1077616], the IC50 in data set [2] was 8710 nM.

With `O=C1/C(=C/c2ccc(O)c(O)c2)COc2ccccc21` [CHEMBL1766558], in data set [1], the Selectivity was 33.7319 and 33.73.

With `O=C(Nc1ccc(O)c(O)c1)c1cc(=O)c2ccccc2o1` [CHEMBL1814057], in data set [1], the Selectivity was 0.07.

As to `O=C(Nc1ccc(O)cc1)c1coc2ccccc2c1=O` [CHEMBL1814064], the Selectivity in data set [1] is 74.375 and 74.38.

In the case of `O=C(Nc1ccc(O)c(O)c1)c1coc2ccccc2c1=O` [CHEMBL1814066], the Selectivity in data set [1] was 2.69.

Turning to `O=C1/C(=C/c2ccc(N3CCOCC3)cc2)Oc2cc(O)cc(O)c21` [CHEMBL1814450], the Selectivity in data set [1] is on record as 3.176.

`O=c1c2ccccc2sc2cc(O)cc(O)c12` [CHEMBL2018439, 1,3-Dihydroxythioxanthone]: the Selectivity in data set [1] is given as 0.9333.

For the compound `CN(C)c1ccc(/C=C2\Oc3cc(O)cc(O)c3C2=O)cc1` [CHEMBL2288402], the Selectivity in data set [1] was 0.04 and 0.03923.

For `O=C1/C(=C/c2ccc(N3CCCC3)cc2)Oc2cc(O)cc(O)c21` [CHEMBL3786282], the Selectivity in data set [1] is listed as 1.1688.

As for `CCN(CC)c1ccc(/C=C2\Oc3cc(O)cc(O)c3C2=O)cc1` [CHEMBL3786747], in data set [1], the Selectivity is listed as 0.3443.

Regarding `CCN(C)c1ccc(/C=C2\Oc3cc(O)cc(O)c3C2=O)cc1` [CHEMBL3786785], in data set [1], the Selectivity was 0.03453.

With `O=C1/C(=C/c2ccc(O)cc2)Cc2cc(O)ccc21` [CHEMBL3890408], in data set [1], the Selectivity was 0.6095 and 0.61.

As for `O=C1/C(=C/c2cccc(O)c2)Cc2cc(O)ccc21` [CHEMBL3891485], the Selectivity in data set [1] was 1.242 and 1.24.

With `N#Cc1ccc(/C=C2\Cc3cc(O)ccc3C2=O)cc1` [CHEMBL3900500], the Selectivity in data set [1] is recorded as 6.582.

With `O=C1/C(=C/c2ccc(Cl)cc2)Cc2cc(O)ccc21` [CHEMBL3907033], the Selectivity in data set [1] was 57.

`COc1cccc(/C=C2\Cc3cc(O)ccc3C2=O)c1` [CHEMBL3918471]: in data set [1], the Selectivity is reported as 2.527.

Consider `O=C1/C(=C/c2cccc(Cl)c2)Cc2cc(O)ccc21` [CHEMBL3924440], for which the Selectivity in data set [1] is listed as 5.233.

Regarding `O=C1/C(=C/c2ccc(F)cc2)Cc2cc(O)ccc21` [CHEMBL3933900], in data set [1], the Selectivity is 14.4468.

Take `O=C1/C(=C/c2ccc(Br)cc2)Cc2cc(O)ccc21` [CHEMBL3950873]: the Selectivity in data set [1] was 198.113.

For the compound `O=C1/C(=C/c2cccc(F)c2)Cc2cc(O)ccc21` [CHEMBL3965044], the Selectivity in data set [1] is 5.452.

For the compound `N#Cc1cccc(/C=C2\Cc3cc(O)ccc3C2=O)c1` [CHEMBL3971638], the Selectivity in data set [1] is 3.415.

Turning to `O=C1/C(=C/c2cccc(Br)c2)Cc2cc(O)ccc21` [CHEMBL3979091], the Selectivity in data set [1] was 10.0769.

On to `Cc1ccc2occ(/C=N/c3cc(Cl)ccc3O)c(=O)c2c1` [CHEMBL4073506], for which the Selectivity in data set [1] is recorded as 3.391.

Take `O=c1c(/C=N/c2cc(F)ccc2O)coc2ccccc12` [CHEMBL4082043]: the Selectivity in data set [1] is 2.612.

Take `Cc1ccc(O)c(/N=C/c2coc3ccc(C)cc3c2=O)c1` [CHEMBL4082612]: the Selectivity in data set [1] is on record as 6.275.

For the compound `O=c1c(/C=N/c2ccc(Cl)cc2O)coc2ccccc12` [CHEMBL4086270], the Selectivity in data set [1] was 0.7978.

For the compound `Cc1ccc2occ(/C=N/c3cc(F)ccc3O)c(=O)c2c1` [CHEMBL4090445], in data set [1], the Selectivity is listed as 1.637.

In the case of `Cc1ccc2occ(/C=N/c3ccc(Cl)cc3O)c(=O)c2c1` [CHEMBL4099570], in data set [1], the Selectivity was 2.863.

Turning to `Cc1ccc(O)c(/N=C/c2coc3ccccc3c2=O)c1` [CHEMBL4100473], in data set [1], the Selectivity is 2.956.

In the case of `Cn1c(=O)c2c(ncn2C)n(C)c1=O` [Caffeine], in data set [3], the “log BB literature value” is 0.01. Further, the Papp at 4 h, 100 µM in data set [4] is 3.24 ×10⁻⁶ cm/s.

In data set [4] (pH 7.4), `COc1cc(-c2coc3cc(O)ccc3c2=O)ccc1O` [Calycosin D] gave a Papp at 4 h, 100 µM of 2.5 ×10⁻⁶ cm/s. For the same compound, the “Experimental log Pe value” in data set [4] was -5.60 and -5.60 ± 0.07. Besides, the Membrane retention in data set [4] was 16.49% and 16.49 ± 1.38%. In addition, the “BBB category from Pe” value in data set [4] (categorization of Di et al.) was “uncertain”. Further, the figures for the “BBB category from log Pe” value in data set [4] (cut-off of Könczöl et al.) and in data set [4] (cut-off of Mensch et al.) were “well-permeating” and “BBB-”, respectively. For the same compound, the values for the logD at 1 h in data set [5] (pH 5) and in data set [5] (pH 7.4) were 2.48 ± 0.02 and 2.21 ± 0.04, respectively. The same compound displayed a logP at 1 h in data set [5] (pH 5) of 2.48.

Regarding `COc1ccc(-c2coc3cc(O)ccc3c2=O)cc1O` [Calycosin], in data set [6], the MAO-B selectivity index is 293.8 and the IC50 is 240 nM.

Consider `COc1ccc(-c2coc3cc(O)ccc3c2=O)cc1` [Formononetin], for which the Papp at 4 h, 100 µM in data set [4] (pH 7.4) is 10 ×10⁻⁶ cm/s. Further, in data set [4], the “Experimental log Pe value” is on record as -5.00 ± 0.11; the Membrane retention is 27.25% and 27.25 ± 6.43%. Further, in data set [5] (pH 5), the logD at 1 h worked out at 2.83 ± 0.05 and the logP at 1 h is 2.83. Also, the logD at 1 h in data set [5] (pH 7.4) is 2.73 ± 0.07.

For `Oc1ccc2c(c1)OC[C@H]1c3cc4c(cc3O[C@@H]21)OCO4` [Maackiain], the “Experimental log Pe value” in data set [7] (4 h, 100 µM) was -4.48. Moreover, the “Experimental log Pe value” in data set [7] is -4.48 ± 0.08. Also, in data set [6], the MAO-B selectivity index was 126.2, the “Type of MAO-B inhibition” value is given as “reversible” and the IC50 is 680 nM. In addition, the “Measured log D^7.4 ± SE” value in data set [5] (pH 7.4, 25°C) came out at 2.49 ± 0.02. In data set [5] (unionized form (pH 5 for isoflavones and isoflavanones)), the “Experimental log P” value came to 2.49.

`COc1cc2c(cc1C1COc3cc(O)ccc3C1=O)OCO2` (centres unmarked) [Onogenin] showed a Papp at 4 h, 100 µM in data set [4] (pH 7.4) of 18.6 ×10⁻⁶ cm/s. For the same compound, in data set [4], the “Experimental log Pe value” is -4.73 ± 0.04; the Membrane retention was 32.51% and 31.51 ± 4.04%. In data set [5] (pH 5), this compound registered a logD at 1 h of 3.03 ± 0.02 and a log partition coefficient (logP) at 1 h of 3.03. The compound further yielded a logD at 1 h in data set [5] (pH 7.4) of 2.49 ± 0.04.

For the compound `C=C[C@H]1C[N@@]2CC[C@H]1C[C@H]2[C@H](O)c1ccnc2ccc(OC)cc12` [Quinine], in data set [3], the “log BB literature value” is reported as 0.60. In data set [4], this compound showed an apparent permeability coefficient (Papp) at 4 h, 100 µM of 15.5 ×10⁻⁶ cm/s.

For `C[C@@H]1O[C@@H](OC[C@H]2O[C@@H](Oc3c(-c4ccc(O)c(O)c4)oc4cc(O)cc(O)c4c3=O)[C@H](O)[C@@H](O)[C@@H]2O)[C@H](O)[C@H](O)[C@H]1O` [Rutin], in data set [3], the “log BB literature value” is -1.22. The same compound had a Papp at 4 h, 100 µM in data set [4] of 0.00776 ×10⁻⁶ cm/s.

For the compound `O=C(O)c1ccccc1O` [Salicylic acid], the “log BB literature value” in data set [3] is recorded as -1.10. In data set [4], this compound gave a Papp at 4 h, 100 µM of 0.00851 ×10⁻⁶ cm/s.

Take `COc1ccc(C2COc3cc(O)ccc3C2=O)c(OC)c1` (centres unmarked) [Sativanone]: in data set [4] (pH 7.4), the Papp at 4 h, 100 µM is 17.4 ×10⁻⁶ cm/s. Moreover, in data set [4], the “Experimental log Pe value” is -4.76 ± 0.07; the Membrane retention was 33.66% and 33.66 ± 4.13%. In data set [5] (pH 5), the logD at 1 h came out at 3.04 ± 0.01 and the logP at 1 h is 3.04. The compound further yielded a logD at 1 h in data set [5] (pH 7.4) of 2.75 ± 0.03.

In general, IC50 refers to the concentration that inhibits the measured activity by half. One may read the Papp as the rate of passage across a membrane or cell layer, normalised by area and donor concentration. Higher therefore signals fast passage. In general, logD refers to lipophilicity at a set pH, counting ionised and neutral species. For orientation: logP means the decadic logarithm of the partition coefficient of the neutral form, usually between octanol and water. Low values mean lower lipophilicity, high ones higher lipophilicity.

The values above are taken from publication PMC8929578, “In vitro and in silico evaluation of Ononis isoflavonoids as molecules targeting the central nervous system” (PLoS ONE, 2022).
